Reference: ChEMBL document CHEMBL3045573, “Design, synthesis, and quantitative structure-activity relationship study of herbicidal analogues of pyrazolo[5,1-d][1,2,3,5]tetrazin-4(3H)ones” (2007)

Legend:
Type in all cases: functional
Conditions in all cases: read-out: GI
[1] = tested on: Brassica rapa subsp. oleifera; assay: Herbicidal activity against Brassica rapa subsp. oleifera assessed as inhibition of root growth of rape seed at 10 ug/mL for 65 hr at 28 +/- 1 degC by root test
Echinochloa crus-galli [2] = assay: Herbicidal activity against Echinochloa crus-galli (barnyard grass) assessed as inhibition of seedling growth at 100 ug/mL for 65 hr at 28 +/- 1 degC by cup test
Echinochloa crus-galli [3] = assay: Herbicidal activity against Echinochloa crus-galli (barnyard grass) assessed as inhibition of seedling growth at 10 ug/mL for 65 hr at 28 +/- 1 degC by cup test
[4] = tested on: Brassica rapa subsp. oleifera; assay: Herbicidal activity against Brassica rapa subsp. oleifera assessed as inhibition of root growth of rape seed at 100 ug/mL for 65 hr at 28 +/- 1 degC by root test

| SMILES | inhibition of growth at 10 µg/mL [1] [%] | inhibition of growth at 100 µg/mL (Echinochloa crus-galli [2]) [%] | inhibition of growth at 10 µg/mL (Echinochloa crus-galli [3]) [%] | inhibition of growth at 100 µg/mL [4] [%] |
| --- | --- | --- | --- | --- |
| CCOC(=O)c1c(SC)nn2c(=O)n(-c3cc(C(F)(F)F)ccc3Cl)nnc12 | 0 | 11 | 2 | 13 |
| CCOC(=O)c1c(C)nn2c(=O)n(-c3cc(C(F)(F)F)ccc3Cl)nnc12 | 61 | 0 | 0 | 65 |
| CC#COc1cc(-n2nnc3c(C(=O)OCC)c(SC)nn3c2=O)c(F)cc1Cl | 0 | 32 | 0 | 0 |
| CCOC(=O)c1c(C(F)(F)F)nn2c(=O)n(-c3ccc(Cl)c(C(F)(F)F)c3)nnc12 | 13 | 0 | 0 | 14 |
| CCOC(=O)c1c(SC)nn2c(=O)n(-c3ccc(Cl)c(C(F)(F)F)c3)nnc12 | 22 | 26 | 0 | 24 |
| CCOC(=O)c1c(SC)nn2c(=O)n(-c3ccc(C(F)(F)F)cc3)nnc12 | 4 | 22 | 2 | 18 |
| CCCOc1cc(-n2nnc3c(C(=O)OCC)c(C(F)(F)F)nn3c2=O)c(F)cc1Cl | 0 | 20 | 0 | 5 |
| C=CCOc1cc(-n2nnc3c(C(=O)OCC)c(C(F)(F)F)nn3c2=O)c(F)cc1Cl | 0 | 16 | 0 | 2 |
| CCOC(=O)c1c(C(F)(F)F)nn2c(=O)n(-c3cccc(C(F)(F)F)c3)nnc12 | 0 | 1 | 0 | 14 |
| CCOC(=O)c1c(C(F)(F)F)nn2c(=O)n(-c3cc(C(F)(F)F)ccc3Cl)nnc12 | 0 | 2 | 0 | 10 |
| CCCOc1cc(-n2nnc3c(C(=O)OCC)c(SC)nn3c2=O)c(F)cc1Cl | 0 | 12 | 0 | 2 |
| CCOC(=O)c1c(C(F)(F)F)nn2c(=O)n(-c3ccc(Cl)cc3C(F)(F)F)nnc12 | 0 | 21 | 0 | 0 |
| CCOC(=O)c1c(SC)nn2c(=O)n(-c3cc(OC(C)C)c(Cl)cc3F)nnc12 | 0 | 20 | 0 | 13 |
| CCOC(=O)c1c(C)nn2c(=O)n(-c3ccc(Cl)c(C(F)(F)F)c3)nnc12 | 89 | 4 | 0 | 89 |
| C=CCOc1cc(-n2nnc3c(C(=O)OCC)c(SC)nn3c2=O)c(F)cc1Cl | 0 | 22 | 0 | 25 |
| CCOC(=O)c1c(C)nn2c(=O)n(-c3ccc(C(F)(F)F)cc3)nnc12 | 82 | 10 | 0 | 90 |
| CCOC(=O)c1c(SC)nn2c(=O)n(-c3c(Cl)cc(C(F)(F)F)cc3Cl)nnc12 | 3 | 28 | 3 | 9 |
| C=CCOc1cc(-n2nnc3c(C(=O)OCC)c(C)nn3c2=O)c(F)cc1Cl | 0 | 24 | 0 | 0 |
| CC#COc1cc(-n2nnc3c(C(=O)OCC)c(C(F)(F)F)nn3c2=O)c(F)cc1Cl | 0 | 28 | 0 | 0 |
| CCOC(=O)c1c(SC)nn2c(=O)n(-c3ccccc3C(F)(F)F)nnc12 | 0 | 0 | 0 | 23 |
| CCOC(=O)c1c(C)nn2c(=O)n(-c3c(Cl)cc(C(F)(F)F)cc3Cl)nnc12 | 4 | 22 | 0 | 25 |
| CCOC(=O)c1c(SC)nn2c(=O)n(-c3cccc(C(F)(F)F)c3)nnc12 | 34 | 0 | 0 | 37 |
| CCOC(=O)c1c(C(F)(F)F)nn2c(=O)n(-c3c(Cl)cc(C(F)(F)F)cc3Cl)nnc12 | 2 | 15 | 0 | 22 |
| CCOC(=O)c1c(C(F)(F)F)nn2c(=O)n(-c3ccc(C(F)(F)F)cc3)nnc12 | 0 | 18 | 9 | 2 |
| CCOC(=O)c1c(C)nn2c(=O)n(-c3ccc(Cl)cc3C(F)(F)F)nnc12 | 0 | 14 | 6 | 63 |
| CCOC(=O)c1c(C(F)(F)F)nn2c(=O)n(-c3ccccc3C(F)(F)F)nnc12 | 7 | 9 | 0 | 9 |
| CCOC(=O)c1c(C)nn2c(=O)n(-c3ccccc3C(F)(F)F)nnc12 | 5 | 6 | 0 | 86 |
| CCCOc1cc(-n2nnc3c(C(=O)OCC)c(C)nn3c2=O)c(F)cc1Cl | 0 | 18 | 0 | 0 |
